Patent US20230391808A1, “PHOSPHAPHENALENE-GOLD(I) COMPLEXES AS CHEMOTHERAPEUTIC AGENTS AGAINST GLIOBLASTOMA” (priority 2020, published 2023)

How the values were obtained:
NCH82 = experiment: Crystal violet proliferation assay, NCH82; format: cell-based, human; conditions: glioblastoma cell line, 48 h exposure, mean of three biological replicates ± standard deviation
NCH89 = experiment: Crystal violet proliferation assay, NCH89; format: cell-based, human; conditions: glioblastoma cell line, 48 h exposure, mean of three biological replicates ± standard deviation
NCH149 = experiment: Crystal violet proliferation assay, NCH149; format: cell-based, human; conditions: glioblastoma cell line, 48 h exposure, mean of three biological replicates ± standard deviation
Experimental: In order to investigate the role of the fused phosphaphenalene ring in the bio-activity of the drug, the ability of Compound 5 to inhibit cell proliferation in the glioblastoma cell lines NCH82, NCH89 and NCH149 was examined. For this purpose, cells were incubated with increasing concentrations of Compound 5 and cell proliferation was evaluated by crystal violet assay.
The effect of different compounds on cell growth was evaluated by the crystal violet method as described earlier (J. P. Rigalli et al., Cancer Lett. 2016, 376, 165-172). Briefly, cells were seeded in 96-well plates (10,000 cells/well). After 24 h cell culture medium was replaced by fresh compound-containing medium (ten different concentrations (0.01 to 200 μM μM)). After 48 h of exposure extent of cell proliferation inhibition was determined by crystal violet staining of surviving cells. Therefore, cells were washed and stained with 0.5% crystal violet solution (2.5 g in 100 ml methanol, diluted with 400 ml aqua bidest) for 15 min, rinsed and dried overnight.
(§1) Next, crystal violet was solubilized in methanol and absorbance was measured at 555 nm. The proliferative index was calculated as crystal violet absorption intensity as percentage relative to baseline (no cells) as described before (T. Peters et al., Naunyn Schmiedebergs Arch Pharmacol. 2006, 372, 291-299.) Cell survival plotted against the decimal logarithm of drug concentration in μM (c (of compound x) in μM) and fitted to a sigmoidal dose-response curve using Graph Pad Prism 7.02 (GraphPad Software, San Diego, USA).

NCH517 [1] = experiment: Crystal violet proliferation assay, brain metastasis NCH517; format: cell-based, human; conditions: brain metastasis cell line, 48 h, mean of three biological replicates ± standard deviation
Description: (§2) Based on the remarkable results obtained with Compound 6, its anti-proliferative effects on a series of different cancer cell lines was investigated. To that end, in addition to the three glioblastoma cell lines described above, Compound 6 was employed on eleven other cancer cell lines including brain metastasis (NCH517, NCH604a and NCH466), meningioma (NCH93 and BenMen-1), IDH-mutant glioma (NCH511b, NCH1618 and NCH3763), and head and neck cancer cell lines (HNO210, HNO199 and HNO97) (Table 3).
(§3) The effect of different compounds on cell growth was evaluated by the crystal violet method as described earlier (J. P. Rigalli et al., Cancer Lett. 2016, 376, 165-172). Briefly, cells were seeded in 96-well plates (10,000 cells/well). […] After 48 h of exposure extent of cell proliferation inhibition was determined by crystal violet staining of surviving cells. […]
as §1

NCH604a [2] = experiment: Crystal violet proliferation assay, brain metastasis NCH604a; format: cell-based, human; conditions: brain metastasis cell line, 48 h, mean of three biological replicates ± standard deviation
Description: as §2, §3, §1

NCH466 [3] = experiment: Crystal violet proliferation assay, brain metastasis NCH466; format: cell-based, human; conditions: brain metastasis cell line, 48 h, mean of three biological replicates ± standard deviation
Description: as §2, §3, §1

NCH93 [4] = experiment: Crystal violet proliferation assay, meningioma NCH93; format: cell-based, human; conditions: meningioma cell line, 48 h, mean of three biological replicates ± standard deviation
Description: as §2, §3, §1

BenMen-1 = experiment: Crystal violet proliferation assay, meningioma BenMen-1; format: cell-based, human; conditions: meningioma cell line, 48 h, mean of three biological replicates ± standard deviation
Description: as §2, §3, §1

NCH551b = experiment: CellTiter-Glo proliferation assay, IDH-mutant glioma NCH551b; format: cell-based, human; conditions: IDH-mutant glioma cell line, 48 h, mean of three biological replicates ± standard deviation
Description: as §2
(§4) To assess the effect of Compound 4 and Compound 6 on cell growth of glioma stem-like cells (GSC) and GSC lines derived from IDH-mutant gliomas, cellular ATP levels were measured using the luminescent CellTiter-Glo Assay (Promega Corp, Madison, WI). GCS spheroid cultures were gently dissociated and cell suspensions were seeded in 96-well tissue culture plates (8,000 cells/well, 100 μl/well). After a 24-hour incubation period without any compound freshly reconstituted compound in ten final concentrations ranging from 0.01 μM to 200 μM were added and cells were incubated for 48 hours.
(§5) Before measurement, the plate was equilibrated at room temperature for 30 minutes. […] Next, the plate was incubated for 10 minutes at room temperature and finally, the luminescence was measured. […]

NCH1618 = experiment: CellTiter-Glo proliferation assay, IDH-mutant glioma NCH1618; format: cell-based, human; conditions: IDH-mutant glioma cell line, 48 h, mean of three biological replicates ± standard deviation
Description: as §2, §4, §5

NCH3763 = experiment: CellTiter-Glo proliferation assay, IDH-mutant glioma NCH3763; format: cell-based, human; conditions: IDH-mutant glioma cell line, 48 h, mean of three biological replicates ± standard deviation
Description: as §2, §4, §5

HNO210 = experiment: Crystal violet proliferation assay, head and neck cancer HNO210; format: cell-based, human; conditions: head and neck cancer cell line, 48 h, mean of three biological replicates ± standard deviation
Description: as §2, §3, §1

HNO199 = experiment: Crystal violet proliferation assay, head and neck cancer HNO199; format: cell-based, human; conditions: head and neck cancer cell line, 48 h, mean of three biological replicates ± standard deviation
Description: as §2, §3, §1

HNO97 = experiment: Crystal violet proliferation assay, head and neck cancer HNO97; format: cell-based, human; conditions: head and neck cancer cell line, 48 h, mean of three biological replicates ± standard deviation
Description: as §2, §3, §1

NCH466 [5] = experiment: Annexin V apoptosis assay (flow cytometry), NCH466; format: cell-based, human; conditions: drug concentration of 2 μM, 48 hours
Experimental: (§6) For this purpose, cells were incubated with different concentrations of Compound 6 for 48 hours and subsequently analyzed by flow cytometry (see representative example in FIG. 4A). Annexin V and propidium iodide (PI) were used as indicators for apoptosis/necrosis.
(§7) To quantitate the extent of apoptosis and necrosis, either annexin V staining combined with DAPI or double labeling of cells with annexin V and propidium iodide (PI) was used. The double labeling allows the distinction between apoptotic (annexin V^pos/DAPI^neg or annexin V^pos/PI^neg) and necrotic (annexin V^pos/DAPI^pos or annexin V^pos/PI^pos) cells. Cells were seeded in a 6-well plate (2.5×10^5/well) and left to attach overnight. […]
(§8) After treatment supernatant containing apoptotic and necrotic cells was collected, cells were harvested, washed, and up to 1×10^6 cells were incubated with FITC-conjugated annexin V antibody diluted in 1:1000 DAPI solution following manufactures instructions (#51-65874X, BD Bioscienes, Franklin Lakes, USA) or incubated with FITC-conjugated annexin V antibody and PI for 15 min following manufacturer instructions (#51-65974X, BD Biosciences, Franklin Lakes, USA). Cells were acquired by flow cytometry using a BD LSRII flow cytometer (BD Bioscienes, Franklin Lakes, USA) and analyzed by FlowJo Software v7.6.5 (TreeStar, Ahland, USA).

NCH517 [6] = experiment: Annexin V apoptosis assay (flow cytometry), NCH517; format: cell-based, human; conditions: drug concentration of 2 μM, 48 hours
Experimental: as §6, §7, §8

NCH604a [7] = experiment: Annexin V apoptosis assay (flow cytometry), NCH604a; format: cell-based, human; conditions: drug concentration of 2 μM, 48 hours
Experimental: as §6, §7, §8

NCH93 [8] = experiment: Annexin V apoptosis assay (flow cytometry), NCH93; format: cell-based, human; conditions: drug concentration of 2 μM, 48 hours
Experimental: as §6, §7, §8

[9] = tested on: head and neck cancer cell lines; experiment: Annexin V apoptosis assay (flow cytometry), head and neck cancer cell lines; format: cell-based, human; conditions: drug concentration of 5 μM, 48 hours
Experimental: as §6, §7, §8

[10] = tested on: cancer cell lines derived from brain metastases, meningiomas, IDH-mutant gliomas and head and neck cancers; experiment: Annexin V apoptosis assay (flow cytometry), all analyzed cell lines; format: cell-based, human; conditions: 48 hours (FIG. 4)
Experimental: as §6, §7, §8

NCH82 cell line = experiment: Drug uptake kinetics by fluorescence microscopy; format: cell-based, human
Experimental: Based on the observed high bio-activity and the spectroscopic properties of Compound 6 as an example of the present invention, the drug uptake kinetics was investigated in NCH82 cell line. To this end, cells were treated with increasing concentrations of Compound 6 and its drug uptake was monitored with a fluorescence microscope (excitation/emission 350/455 nm; data not shown).
To measure the uptake kinetics of compound 6 by NCH82 cells, they were seeded in a 96-well plate (5,000 cells/well) and after 24 h, cell culture medium was replaced with compound 6 or DMSO-containing medium (0.1, 1 and 10 μM). Images were taken with a fluorescence microscope (Olympus, Shinjuku, Japan) at 1 h, 24 h and 48 h after treatment initiation. A laser with an excitation/emission spectrum of 350/455 nm was used and images were taken with a 10× objective.

[11] = Stability under controlled thermodynamic conditions upon repetitive cycles of illumination; format: physicochemical; conditions: data not shown
cancer cell lines = experiment: Anti-proliferative effects on a series of different cancer cell lines; format: cell-based, human; conditions: summary over all cell lines of Table 3; read-out: mean IC50 values in some cell lines
Description: as §2, §3
as §1, with “USA). […]” for “USA).”

Structure (SMILES): CC(=O)OC[C@H]1O[C@@H]([S][Au-][P+]2(c3ccccc3)c3ccn(C)c3-c3cccc4cccc2c34)[C@H](OC(C)=O)[C@@H](OC(C)=O)[C@@H]1OC(C)=O (stereo partly drawn) [Compound 6]
- IC50 (NCH82): 730 nM
- IC50 (NCH89): 4000 nM
- IC50 (NCH149): 870 nM
- IC50 (NCH517 [1]): 1600 ± 300 nM
- IC50 (NCH604a [2]): 1860 ± 140 nM
- IC50 (NCH466 [3]): 1010 ± 20 nM
- IC50 (NCH93 [4]): 1350 ± 90 nM
- IC50 (BenMen-1): 1320 ± 120 nM
- IC50 (NCH551b): 1230 ± 250 nM
- IC50 (NCH1618): 880 nM
- IC50 (NCH3763): 5210 ± 310 nM
- IC50 (HNO210): 1100 ± 80 nM
- IC50 (HNO199): 2650 ± 250 nM
- IC50 (HNO97): 5510 ± 1040 nM
- cells in apoptosis/necrosis, NCH466 (NCH466 [5]): more than 50%
- cells in apoptosis/necrosis, NCH517 (NCH517 [6]): more than 50%
- cells in apoptosis/necrosis, NCH604a (NCH604a [7]): more than 50%
- cells in apoptosis/necrosis, NCH93 (NCH93 [8]): more than 50%
- cells in apoptosis/necrosis, head and neck cancer cell lines [9]: more than 50%
- induction of apoptosis/necrosis in all analyzed cell lines [10]: able to induce apoptosis/necrosis
- time after treatment initiation at which dead cells were first observed (NCH82 cell line; 0.1 μM): 48 h
- time after which cell death could be observed (NCH82 cell line; 1 μM): 24 h
- stability upon repetitive cycles of illumination [11]: very high stability
- IC50 (cancer cell lines): ~1500 nM
